Assays:
NFATc1 [1] = assay: RANKL-induced NFATc1 expression in human OCPs (immunoblot, qPCR); assay type: cell-based
Protocol: (a and b) BMDMs from WT and FICDtg^M mice was stimulated with RANKL (50 ng/ml) at the indicated time. (a) RT-qPCR of Nfatc1 mRNA normalized relative to Hprt mRNA. (b) Immunoblot with anti NFATc1, HA, or α-tubulin antibodies. (c and d) BMDMs from Csf1r^f/+ Mx1-Cre mice were transduced by lentiviruses encoding FMS^wt, or FMS^mut and then cultured with M-CSF and RANKL. (c) Immunoblot of whole lysate with anti-NFATc1 antibody. α-tubulin was used as a control. […] The intensity of NFATc1 in FMS^mut was set as 100%. (d) Expression mRNA level of NFATc1. (e) Immunoblot of whole cell lysates with phospho-eIF4E antibodies. HA-tagged FICD was detected by HA-antibody. α-tubulin was used as a control. […] (f and g) Human CD14+ cells were treated with CGP57380 at the indicated doses for one hour and cultured with RANKL for one day. […] (g) Nfatc1 mRNA expression was measured by qPCR relative to HPRT. A DMSO-treated RANKL condition was set as 100%. […]
(§1) Whole cell extracts were prepared by lysis in buffer containing 1× Lamin sample buffer (Bio-rad) and 2-Mercaptoethanol (Sigma) or RIPA buffer (Sigma). […] The protein concentration of nuclear extracts was quantitated using the Bradford assay (Bio-Rad; 5000001). For immunoblot, proteins were separated on 7.5 or 10% SDS-PAGE gels, transferred to polyvinylidene difluoride membranes (PVDF, Millipore; ISEQ00010), and detected by antibodies as listed in the figure legends.

BMDM cells = assay: Mouse osteoclastogenesis assay in BMDMs (TRAP-positive multinuclear cells); assay type: cell-based
Protocol: (a and b) BMDMs from WT and FICDtg^M mice was stimulated with RANKL (50 ng/ml) at the indicated time. (a) RT-qPCR of Nfatc1 mRNA normalized relative to Hprt mRNA. (b) Immunoblot with anti NFATc1, HA, or α-tubulin antibodies. (c and d) BMDMs from Csf1r^f/+ Mx1-Cre mice were transduced by lentiviruses encoding FMS^wt, or FMS^mut and then cultured with M-CSF and RANKL. (c) Immunoblot of whole lysate with anti-NFATc1 antibody. α-tubulin was used as a control. […] The intensity of NFATc1 in FMS^mut was set as 100%. (d) Expression mRNA level of NFATc1. (e) Immunoblot of whole cell lysates with phospho-eIF4E antibodies. HA-tagged FICD was detected by HA-antibody. α-tubulin was used as a control. […] (f and g) Human CD14+ cells were treated with CGP57380 at the indicated doses for one hour and cultured with RANKL for one day. […] (g) Nfatc1 mRNA expression was measured by qPCR relative to HPRT. A DMSO-treated RANKL condition was set as 100%. (h) Osteoclastogenesis assay. […]
(A and B) BMDMs from WT and FICDtg^M mice were cultured with RANKL for 24 hours. […] HA-tagged FICDs were detected by HA-antibody. α-tubulin or P38 was used as a control. […]
For human osteoclastogenesis assays, cells were added to 96 well plates in triplicate at a seeding density of 5×10^4 cells per well. […] Multinucleated (greater than 3 nuclei), TRAP-positive osteoclasts were counted in triplicate wells. […]

NFATc1 [2] = assay: RANKL-induced NFATc1 expression in mouse OCPs (immunoblot, qPCR); assay type: cell-based
Protocol: (A and B) BMDMs from WT and FICDtg^M mice were cultured with RANKL for 24 hours. Immunoblot of whole cell lysates with phopho-p70S6K and phopho-4E-BP1 antibodies. HA-tagged FICDs were detected by HA-antibody. α-tubulin or P38 was used as a control. (C) BMDMs from female wild type LysM cre mice (WT) or RAPTORf/f-LysM cre mice (Raptor cKO) were cultured with M-CSF for 4 days and were stimulated with RANKL for the indicated days. Immunoblot of whole cell lysates with anti-Raptor, NFATc1, or α-tubulin antibodies. (D-F) BMDMs from WT mice were treated with CPG57380 at the indicated doses and then cultured with RANKL for one day. (D) Immunoblot of whole lysate with anti-NFATc1 antibody. α-tubulin was used as a control. […] The intensity of NFATc1 bands in RANKL treatment conditions (control) was set as 100%. (n=4) (E) Expression mRNA level of NFATc1. […]
as §1

[3] = tested on: BMDMs from WT and FICDtg^M mice; assay: Cell viability assay in BMDMs; assay type: cell-based, mouse; conditions: CGP57380 at the indicated doses for one day
Protocol: (a and b) BMDMs from WT and FICDtg^M mice was stimulated with RANKL (50 ng/ml) at the indicated time. (a) RT-qPCR of Nfatc1 mRNA normalized relative to Hprt mRNA. (b) Immunoblot with anti NFATc1, HA, or α-tubulin antibodies. (c and d) BMDMs from Csf1r^f/+ Mx1-Cre mice were transduced by lentiviruses encoding FMS^wt, or FMS^mut and then cultured with M-CSF and RANKL. (c) Immunoblot of whole lysate with anti-NFATc1 antibody. α-tubulin was used as a control. […] The intensity of NFATc1 in FMS^mut was set as 100%. (d) Expression mRNA level of NFATc1. (e) Immunoblot of whole cell lysates with phospho-eIF4E antibodies. HA-tagged FICD was detected by HA-antibody. α-tubulin was used as a control. […] (f and g) Human CD14+ cells were treated with CGP57380 at the indicated doses for one hour and cultured with RANKL for one day. […] (g) Nfatc1 mRNA expression was measured by qPCR relative to HPRT. A DMSO-treated RANKL condition was set as 100%. (h) Osteoclastogenesis assay. BMDMs from WT and FICDtg^M mice were treated with CPG57380 at the indicated doses and then cultured with RANKL for three days. […] Scale bar: 100 μm. (i) Cell viability assay. BMDMs WT and FICDtg^M mice was stimulated with CPG57380 at the indicated doses for one day. (j-n) K/BxN serum transfer induced arthritis model. 9-week old male C57BL/6J mice were received K/BxN serum on day 0 and day 2. […]

osteoclastogenesis = conditions: inhibiting proteosomal degradation; cited from earlier work
[4] = CGP57380, RANKL for one day, qPCR

Row | Compound | Nfatc1 mRNA expression (NFATc1 [1]; [4]) | RANKL-induced NFATc1 protein expression (NFATc1 [1]; CGP57380 one hour, then RANKL for one day) | enhanced osteoclastogenesis in FICDtg^M cells (BMDM cells; BMDMs from FICDtg^M mice, RANKL for three days) | osteoclast differentiation (BMDM cells; BMDMs from WT mice, RANKL for 3 days) | Nfatc1 mRNA expression (NFATc1 [2]; [4]) | RANKL-induced NFATc1 protein expression (NFATc1 [2]; CGP57380, then RANKL for one day) | cell viability [3] | osteoclastogenesis (osteoclastogenesis)
1 | Nc1ncnc2n[nH]c(Nc3ccc(F)cc3)c12 [CGP57380] | marginally changed | suppressed RANKL-induced NFATc1 protein expression in a dose-dependent manner | inhibited the enhanced osteoclastogenesis in FICDtg^M cells to become comparable to osteoclasts in WT cells | suppressed osteoclast differentiation in a dose-dependent manner | marginally changed | suppressed RANKL-induced NFATc1 protein expression in a dose-dependent manner | minimal effect | –
2 | CC(C)C[C@H](NC(=O)[C@H](Cc1ccccc1)NC(=O)c1cnccn1)B(O)O [bortezomib] | – | – | – | – | – | – | – | suppresses osteoclastogenesis
